Laboratory results from patent US20090176776A1, “SMALL MOLECULE INHIBITORS OF HIV-1 CAPSID ASSEMBLY” (UNIVERSITY OF ALABAMA AT BIRMINGHAM, priority 2005, published 2009).

Legend:
[1] = target: T1, recombinant HIV-1 capsid protein (CA) (Human immunodeficiency virus type 1 group M subtype B, UniProt P12493); test: Turbidity based HIV-1 capsid assembly assay; format: biochemical; conditions: initial assembly rate by turbidity; twofold dilutions over a 128 fold range; 30 μM CA, 2.25 M NaCl
T1 construct: recombinant HIV-1 capsid protein (CA); made in house
Description: The kinetics can be followed by monitoring the increase of turbidity using a spectrophotometer. The IC50 of the chemical compound tested is determined by titration. As the C-domain inhibits capsid assembly by forming CA-C-domain heterodimers, the effect of added C-terminal domain on the rate of assembly was evaluated by plotting the rate of assembly versus C-terminal domain concentration.
Soluble HIV-1 capsid protein can be triggered to assemble into tubes similar in diameter and morphology to intact cores by dilution into high iconic strength buffer. The kinetics of assembly can be followed by monitoring the increase in turbidity using a spectrophotometer (Lanham et al., J. Virol., 76:6900, 2002). This assembly assay was adapted to a 96-well, microplate format to allow for medium-throughput screening of compounds by measuring turbidity in a Nepeloskan Ascent plate reader (Thermo Electron Corp., UK). A DIVERSet™ library of 10,000 low molecular weight, “drug-like” compounds was purchased from ChemBridge Corp. (San Diego, Calif.). This library was selected for its potential bioavailability and application based on a pharmacophore diversity analysis. The average molecular weight of the compounds is 347 g/mol, the range being 200-596 g/mol. The compounds came plated in 96-well plates and solubilized in DMSO at 5 mgs/mL.
Turbidity based assay. A 1.5 μL aliquot of compound was diluted 90-fold into 50 mM Na2HPO4, […] buffer, pH 8 in an optically clear 96-well plate. The plate containing compounds and salt was read to check for compound solubility and to serve as a background reading for the assay. To initiate the assembly reaction, 15 μL of […] stock (in 50 mM Na2HPO4 pH 8) of recombinant HIV-1 capsid protein (CA), purified as described (Lanman et al., J. Virol., 76:6900, 2002), was added to each well of the 96-well plate using a multi-channel pipettor. […] Furthermore, the halftime of the assembly reaction is ˜5 minutes so reading the plate in thirds prevented loss of initial rate data. Therefore, CA was added to the first 4 lanes, the reactions followed for ten minutes, reading was paused, CA was then added to the next four lanes and the process repeated. Instrument settings are as follows: PMT gain of 500 V, lamp at 10V, and integration time of 60 ms. The data were exported to a custom designed Excel spreadsheet that allowed simultaneous plotting of kinetic curves.
Recombinant CA protein was purified as previously described and stored at 300 μM at −80° C. A turbidity based assembly assay, described above, was adapted to a 96-well, microplate format to allow for medium-throughput screening of compounds in a Nepheloskan Ascent plate reader (Thermo Electron Corp., UK). A 1.5 μL aliquot of compound or DMSO was diluted 90-fold into 50 mM Na2HPO4, 2.25 M NaCl buffer, pH 8 in an optically clear 96-well plate. To initiate the assembly reaction, 15 μL of the 300 μM stock (in 50 mM Na2HPO4 pH 8) of recombinant HIV-1 capsid protein (CA), was added to each well of the 96-well plate using a multi-channel pipettor.

[2] = MTS score (Table 1; method not described); format: cell-based; conditions: for MTS AVG 4 (No Effect): average of the MTS scores at 10, 30 and 100 μM; for MTS 10 μM: score at nominal 10 μM; for MTS 10 μM / MTS 30 μM / MTS 100 μM: 4 = No Effect; for MTS 30 μM: score at nominal 30 μM; for MTS 100 μM: score at nominal 100 μM
[3] = system: HIV-1YU2; test: Anti-HIV assay (multiple round), luciferase expression in Luc-M7 cells; format: cell-based; conditions: Luc-M7 cells infected with HIV-1YU2, 6 days, Bright-Glo
Description: (§1) Anti-HIV Assays (Multiple Round). The inhibitory effects of the tested compounds on HIV-1YU2 replication were determined by the level of luciferase expression after 6 days of infection using Bright-Glo assay (Promega). An amount of 1.5×10^4 Luc-M7 (a gift from Ned Landau) cells per ml were infected with HIV-1YU2 at a multiplicity of infection (MOI) of 3. The HIV-1 infected ([…] compound) or mock-infected (0-300 μM compound) Luc-M7 cells were placed in 96-well culture plates (100 μl/well) with 100 μl of various concentrations of the compounds with 20 μg/ml DEAE Dextran in triplicate and incubated at 37° C. under 5% CO2 at 100% humidity. After 6 days, cell viability was quantified by Cell-Titer Glo assay (Promega). […] On day 5 cell viability was determined in the mock-infected cells. FIGS. 12-18 show the anti-HIV assays for the examples of chemical compounds used according to the invention. After in-vitro assay, the chemical compounds in FIGS. 12-18 were selected for screening for cell viability and toxicity. Jurkat cells assay was used as screening assay. […] After five days, GFP expression was read. Cell viability was monitored with Alamar Blue assay. Luc M7 assay was designed to measure inhibitory activity of the chemical compounds to viral replication. After infection of cells with YU2 virus, plate cells in 96-well plate in the presence of six concentration of compounds in DMSO. At day 6, the number of cells in wells were read with Cell Titer Glo kit or by counting the number of cells infected with Bright Glo kit. 293T cells assay was designed to determine the toxicity. 293T cells were transfected with NL43. After four hours, transfected cells were plated in 96-well plate in DMSO and 2 μM Indinavir. 72 hours later, viral supernatant was collected and plated on J[…].

[4] = system: Luc-M7 cells; test: Cell viability of Luc-M7 cells (Cell-Titer Glo); format: cell-based; design: unit: μM; conditions: mock-infected Luc-M7 cells, 6 days
Description: as §1

Compound | IC50 [1] | MTS AVG 4 (No Effect) [2] | MTS 10 μM [2] | MTS 30 μM [2] | MTS 100 μM [2] | IC50 [3] | TC50 [4]
Cc1ccc(OCC(=O)NN=Cc2c(Br)cc(Br)c(O)c2Br)cc1 [Compound 3] | 7 µM | 3.667 | 4 | 3 | 4 |  | 
CC(C)(C)c1ccc(OCC(=O)NN=Cc2ccc(O)c([N+](=O)[O-])c2)cc1 [Compound 38] | 35 µM | 3.333 | 4 | 3 | 3 |  | 
COc1ccc(OCC(=O)NN=Cc2cc(O)c(O)c(Br)c2)c(Br)c1 [Compound 71] | 24 µM | 2.333 | 4 | 2 | 1 |  | 
O=C(NN=Cc1c(Br)cc(Br)c(O)c1Br)c1ccccc1[N+](=O)[O-] [Compound 23] | 12 µM | 3.667 | 4 | 4 | 3 |  | 
Cc1cc(F)ccc1NCc1ccccn1 [Compound 16] | 95 µM | 3.000 | 4 | 4 | 1 | 17.8 µM | 66.5
COc1c(O)ccc(C=NNC(=O)COc2cccc(C)c2)c1[N+](=O)[O-] [Compound 39] | 28 µM | 2.333 | 4 | 2 | 1 |  | 
Cc1ccc(OCC(=O)NN=Cc2ccncc2)cc1 [Compound 56] | 40 µM | 3.333 | 4 | 3 | 3 |  | 
Oc1ccc(C=NNc2cc(N3CCOCC3)nc(N3CCOCC3)n2)c(O)c1 [Compound 9] | 7 µM | 2.000 | 4 | 1 | 1 |  | 
CCOC(=O)c1c(N2C(=O)C=CC2=O)sc2c1CCCC2 [Compound 8] | 4 µM | 3.667 | 4 | 4 | 3 | 13.3 µM | 27.7
Cc1ccc(C(C)C)c(OCC(=O)NN=Cc2ccc(C(=O)O)cc2)c1 [Compound 65] | 14 µM | 3.667 | 4 | 4 | 3 |  | 
Nc1nc(-c2ccccc2Cl)cs1 [Compound 15] | 60 µM | 3.000 | 4 | 3 | 2 | 19.8 µM | 58.9
O=C(O)c1ccc2c(c1)C1C=CCC1C(c1cccc([N+](=O)[O-])c1)N2 (stereo not drawn) [Compound 59] | 22 µM | 4.000 | 4 | 4 | 4 | 4.5 µM | 84.1
O=C(O)c1ccc2c(c1)C1C=CCC1C(c1ccc([N+](=O)[O-])cc1)N2 (stereo not drawn) [Compound 41] | 18 µM | 3.667 | 4 | 4 | 3 | 2.1 µM | 65.8
O=C(COc1ccc2ccccc2c1)NN=Cc1cc(O)c(O)c(Br)c1 [Compound 53] | 33 µM | 2.000 | 4 | 1 | 1 |  | 
CC(=NNC(=O)C(O)c1ccccc1)c1ccc2c(c1)CCCC2 (stereo not drawn) [Compound 6] | 9 µM | 3.000 | 4 | 3 | 2 | 15.4 µM | 36.8
CC(C)(C)c1ccc(OCCN2CCOCC2)cc1 [Compound 60] | 75 µM | 3.333 | 4 | 4 | 2 | 6.98 µM | 125.3
O=C(NN=Cc1cc(Cl)cc([N+](=O)[O-])c1O)c1ccc2c(c1)OCO2 [Compound 37] |  | 2.000 | 4 | 1 | 1 |  | 
Cc1ccc(NCC(=O)NN=Cc2c(Br)cc(Br)c(O)c2Br)cc1 [Compound 17] | 11 µM | 2.333 | 4 | 1 | 2 |  | 
O=C1Nc2c(Br)cc(Br)cc2C1=NNC(=O)C(O)c1ccccc1 (stereo not drawn) [Compound 50] | 15 µM | 2.333 | 4 | 2 | 1 |  | 
